According to the NIST ThermoML archive (doi:10.1016/j.jct.2009.01.006):

Tests used:
[1] = 303.15 K; for speed of sound: Linear variable-path acoustic interferometer
[2] = refractive index (Na D-line) (dimensionless); settings: 298.15 K; 101.33 kPa; Liquid; Standard Abbe refractometry
[3] = xn = mol fraction of the nth substance listed; settings: 303.15 K, 101 kPa, Liquid, Direct dilatometry
[4] = φn = volume fraction of the nth substance listed; settings: 303.15 K, 101 kPa, Liquid; for speed of sound: Linear variable-path acoustic interferometer

CC(=O)CC(C)C [4-methylpentan-2-one]
[1], Liquid
Settings	mass density [kg/m3]	speed of sound [m/s]
101 kPa	791.24	1168
101.33 kPa	791.25	1172

Settings	refractive index
[2]	1.3935

CC(=O)CC(C)C [4-methylpentan-2-one] + CN1CCCC1=O
Settings	excess molar volume [m3/mol]	mass density [kg/m3]	speed of sound [m/s]
[3], x2 = 0.0682	-1.09e-07	–	–
[3], x2 = 0.1202	-1.82e-07	–	–
[3], x2 = 0.2327	-2.88e-07	–	–
[3], x2 = 0.3164	-3.49e-07	–	–
[3], x2 = 0.3727	-3.78e-07	–	–
[3], x2 = 0.4616	-4.11e-07	–	–
[3], x2 = 0.5111	-4.22e-07	–	–
[3], x2 = 0.5711	-4.24e-07	–	–
[3], x2 = 0.6703	-4.15e-07	–	–
[3], x2 = 0.7739	-3.58e-07	–	–
[3], x2 = 0.8589	-2.73e-07	–	–
[3], x2 = 0.9208	-1.79e-07	–	–
[3], x2 = 0.9675	-9.3e-08	–	–
[4], φ2 = 0	–	791.24	1168
[4], φ2 = 0.0946	–	814.41	1198
[4], φ2 = 0.1879	–	836.88	1232
[4], φ2 = 0.2615	–	854.5	1259
[4], φ2 = 0.3961	–	886.44	1310
[4], φ2 = 0.4444	–	897.82	1332
[4], φ2 = 0.6087	–	936.2	1385
[4], φ2 = 0.7236	–	962.58	1422
[4], φ2 = 0.8232	–	985.02	1456
[4], φ2 = 0.8989	–	1001.74	1491

CN1CCCC1=O [N-methylpyrrolidone]
[1]
Settings	mass density, 101 kPa [kg/m3]	mass density, 101.33 kPa [kg/m3]	speed of sound, 101.33 kPa [m/s]
Crystal	–	1023.4	–
Liquid	1023.4	–	1552

Settings	refractive index
[2]	1.4674

CN1CCCC1=O [N-methylpyrrolidone] + CC(=O)CC(C)C
[4], φ1 = 1
Settings	mass density [kg/m3]	speed of sound [m/s]
–	1023.4	1552

CN1CCCC1=O [N-methylpyrrolidone] + CCC(=O)CC
[4], φ1 = 1
Settings	mass density [kg/m3]	speed of sound [m/s]
–	1023.4	1552

CN1CCCC1=O [N-methylpyrrolidone] + CCC(C)=O
Settings	speed of sound [m/s]
[4], φ1 = 1	1552

CN1CCCC1=O [N-methylpyrrolidone] + CCCC(C)=O
[4], φ1 = 1
Settings	mass density [kg/m3]	speed of sound [m/s]
–	1023.4	1552

CN1CCCC1=O [N-methylpyrrolidone] + O=C1CCCCC1
[4], φ1 = 1
Settings	mass density [kg/m3]	speed of sound [m/s]
–	1023.4	1552

CCC(C)=O [butanone]
[1], Liquid
Settings	mass density [kg/m3]	speed of sound [m/s]
101 kPa	794.51	1167
101.33 kPa	794.5	1168

Settings	refractive index
[2]	1.377

CCC(C)=O [butanone] + CN1CCCC1=O
Settings	excess molar volume [m3/mol]	speed of sound [m/s]
[3], x2 = 0.0705	-7.1e-08	–
[3], x2 = 0.1436	-1.42e-07	–
[3], x2 = 0.2097	-1.89e-07	–
[3], x2 = 0.2854	-2.44e-07	–
[3], x2 = 0.4102	-2.93e-07	–
[3], x2 = 0.5043	-3.02e-07	–
[3], x2 = 0.5795	-2.96e-07	–
[3], x2 = 0.6942	-2.56e-07	–
[3], x2 = 0.8068	-1.89e-07	–
[3], x2 = 0.9134	-9.8e-08	–
[3], x2 = 0.9545	-5.1e-08	–
[4], φ2 = 0	–	1167
[4], φ2 = 0.1517	–	1214
[4], φ2 = 0.2207	–	1245
[4], φ2 = 0.2988	–	1282
[4], φ2 = 0.426	–	1345
[4], φ2 = 0.5205	–	1391
[4], φ2 = 0.5952	–	1421
[4], φ2 = 0.7078	–	1456
[4], φ2 = 0.8167	–	1483
[4], φ2 = 0.9184	–	1519

O=C1CCCCC1 [cyclohexanone]
[1], Liquid
Settings	mass density [kg/m3]	speed of sound [m/s]
101 kPa	937.58	1386
101.33 kPa	937.55	1385

Settings	refractive index
[2]	1.4501

O=C1CCCCC1 [cyclohexanone] + CN1CCCC1=O
Settings	excess molar volume [m3/mol]	mass density [kg/m3]	speed of sound [m/s]
[3], x2 = 0.0657	2.7e-08	–	–
[3], x2 = 0.1238	4.6e-08	–	–
[3], x2 = 0.2207	7.1e-08	–	–
[3], x2 = 0.3217	9e-08	–	–
[3], x2 = 0.4262	1.13e-07	–	–
[3], x2 = 0.5178	1.21e-07	–	–
[3], x2 = 0.5918	1.18e-07	–	–
[3], x2 = 0.7236	1.09e-07	–	–
[3], x2 = 0.7984	9.4e-08	–	–
[3], x2 = 0.9166	5.2e-08	–	–
[3], x2 = 0.9604	3.2e-08	–	–
[4], φ2 = 0	–	937.58	1386
[4], φ2 = 0.1156	–	947.92	1392
[4], φ2 = 0.2076	–	954.74	1402
[4], φ2 = 0.3053	–	962.9	1415
[4], φ2 = 0.4073	–	971.45	1426
[4], φ2 = 0.4984	–	979.17	1438
[4], φ2 = 0.5729	–	985.58	1454
[4], φ2 = 0.7078	–	997.22	1480
[4], φ2 = 0.7856	–	1004.04	1496
[4], φ2 = 0.9104	–	1015.17	1522

CCCC(C)=O [pentan-2-one]
[1], Liquid
Settings	mass density [kg/m3]	speed of sound [m/s]
101 kPa	796.54	1202
101.33 kPa	796.58	1197

Settings	refractive index
[2]	1.3883

CCCC(C)=O [pentan-2-one] + CN1CCCC1=O
Settings	excess molar volume [m3/mol]	mass density [kg/m3]	speed of sound [m/s]
[3], x2 = 0.0776	-1.11e-07	–	–
[3], x2 = 0.1284	-1.74e-07	–	–
[3], x2 = 0.2108	-2.81e-07	–	–
[3], x2 = 0.2852	-3.59e-07	–	–
[3], x2 = 0.3669	-4.39e-07	–	–
[3], x2 = 0.4655	-4.98e-07	–	–
[3], x2 = 0.5205	-5.21e-07	–	–
[3], x2 = 0.5851	-5.28e-07	–	–
[3], x2 = 0.6353	-5.29e-07	–	–
[3], x2 = 0.7406	-4.68e-07	–	–
[3], x2 = 0.8612	-3.15e-07	–	–
[3], x2 = 0.9366	-1.67e-07	–	–
[3], x2 = 0.9769	-7.6e-08	–	–
[4], φ2 = 0	–	796.54	1202
[4], φ2 = 0.1165	–	824.33	1231
[4], φ2 = 0.193	–	842.58	1254
[4], φ2 = 0.3417	–	877.77	1308
[4], φ2 = 0.4382	–	900.32	1345
[4], φ2 = 0.493	–	913.03	1367
[4], φ2 = 0.6094	–	939.74	1403
[4], φ2 = 0.7189	–	964.15	1429
[4], φ2 = 0.8475	–	991.98	1467
[4], φ2 = 0.9297	–	1009.18	1498

CCC(=O)CC [pentan-3-one]
[1], Liquid
Settings	mass density [kg/m3]	speed of sound [m/s]
101 kPa	804.57	1198
101.33 kPa	804.62	1201

Settings	refractive index
[2]	1.3902

CCC(=O)CC [pentan-3-one] + CN1CCCC1=O
Settings	excess molar volume [m3/mol]	mass density [kg/m3]	speed of sound [m/s]
[3], x2 = 0.0634	-1.55e-07	–	–
[3], x2 = 0.1526	-2.89e-07	–	–
[3], x2 = 0.2446	-3.57e-07	–	–
[3], x2 = 0.3948	-3.98e-07	–	–
[3], x2 = 0.4476	-4.12e-07	–	–
[3], x2 = 0.5371	-4.2e-07	–	–
[3], x2 = 0.591	-4.22e-07	–	–
[3], x2 = 0.7146	-4.13e-07	–	–
[3], x2 = 0.7962	-3.45e-07	–	–
[3], x2 = 0.9124	-2.31e-07	–	–
[3], x2 = 0.9626	-1.06e-07	–	–
[4], φ2 = 0	–	804.57	1198
[4], φ2 = 0.1401	–	837.52	1230
[4], φ2 = 0.2265	–	857.08	1252
[4], φ2 = 0.3711	–	889.22	1297
[4], φ2 = 0.423	–	900.7	1316
[4], φ2 = 0.5121	–	920.45	1347
[4], φ2 = 0.5666	–	932.49	1365
[4], φ2 = 0.6937	–	960.46	1415
[4], φ2 = 0.79	–	981.3	1452
[4], φ2 = 0.904	–	1004.83	1502
